System: BALB/c mice
Assay: Plasma EPO in mice IV injected with 3 μg TransIT-complexed EPO mRNA (ELISA)
Type: in vivo
Method: To confirm in vitro data, female BALB/c mice from Jackson Laboratory (Bar Harbor, ME, USA) at the age of eight to ten weeks were used for in vivo experiment in accordance with federal policies on animal research (Ethics approval number: G18-12-027). Mice (n=3/group) were injected intravenously (i.v.) with 3 μg TransIT-complexed (Mirus Bio) EPO mRNAs in a final volume of 200 μL Dulbecco's modified Eagle medium (DMEM). Mice used as controls were injected with TransIT-reagent diluted in DMEM but without RNA. Mice were injected with EPO mRNA complexed with TransIT-reagent and EPO levels in plasma were measured using ELISA (FIG. 8A). Hematocrit was measured from 18 μl of blood that was collected at the indicated times using centrifugation in Drummond microcaps glass capillary tubes (20 μl volume, Merck, Germany) as described (20) (FIG. 8B). After determination of the hematocrit, capillary tubes were snapped open, and the plasma was collected to measure EPO levels and analyzed for mouse Erythropoietin DuoSet ELISA kit (R&D Systems) according to the manufacturer's instructions. […] EPO RNA containing m1Ψ translated two-fold more than U-containing mRNA at each time points (FIG. 8A). Both compound I′-1 and compound I′-6 are suitable for translation of the encoded protein and each cap analog can be used for synthesizing of non-replicating functional mRNAs (FIG. 8A, 8B).
In each in vivo experiment in order to measure the translational efficiency and to determine the functionality of EPO mRNA capped with I′-1, I′-2, I′-3, I′-5, I′-6, I′-9, I′-12, I′-13, I′-16, CC114, and CC413 in vivo, female BALB/c mice from Jackson Laboratory (Bar Harbor, ME, USA) at the age of eight to ten weeks were used for in accordance with federal policies on animal research (Ethics approval number: G19-12-074). In each case, mice (n=3/group) were injected intravenously (i.v.) with 3 μg TransIT-complexed (Mirus Bio) EPO mRNAs in a final volume of 200 μL Dulbecco's modified Eagle medium (DMEM). Mice used as controls were injected with TransIT-reagent diluted in DMEM but without RNA. To measure hematocrits and EPO levels in the individual mice that were injected with EPO mRNA capped with I′-6, I′-1, CC114, and CC413 and complexed with TransIT-reagent, 18 μL of blood was collected at the indicated times (FIG. 8B) and centrifuged in Drummond microcaps glass capillary tubes (20 μl volume, Merck, Germany) as described (19). After determination of the hematocrit, capillary tubes were snapped open, and the plasma was collected to measure EPO levels and analyzed for mouse Erythropoietin DuoSet ELISA kit (R&D Systems) according to the manufacturer's instructions. […] EPO RNA containing m1Ψ modifications translated 2-3-fold, 5-fold, and 10-fold more than U-containing mRNAs at 6-24, 48 and 72 hours after injections, respectively. (FIG. 8A). […] To address translation of I′-6-capped mRNA in human primary hepatocytes, EPO level was measured from supernatants transfected using 0.1 μg/well TransIT-formulated I′-6- or CC114-capped uRNA (FIG. 13).
To this end, we generated U-containing as well as m1Ψ-modified EPO RNA capped with cap analogs which belong to either the non-ARCA (I′-13) or ARCA (I′-6) classes. Moreover, the latter ones contain 2′-OMe (I′-5) or 3′-OMe (I′-6) at the ribose of the m7G moiety. Three μg of TransIT-complexed EPO mRNA capped with nucleoside modification-containing NeoCaps I′-13, I′-5 and I′-6 cap analogs were injected into mice intravenously. After that EPO level of plasma collected from mice was measured at 6, 24 and 48 hours after administration to compare the translational activity of mRNA capped with NeoCaps with U-containing or m1Ψ-modified mRNA capped with non-modified ARCA 3′OMe I′-1.
Plasma EPO level of mice injected with 3 μg of each TransIT-complexed mRNA was determined using murine EPO-specific ELISA at 6, 24, 48 and 72 hours after intravenous administration. […]

Question: For `COC1C(OP(=O)(O)OC[C@H]2O[C@@H](c3cn(C)c(=O)[nH]c3=O)C(O)C2O)[C@@H](COP(=O)(O)OP(=O)([O-])OP(=O)(O)OC[C@H]2O[C@@H](n3c[n+](C)c4c(O)nc(N)nc43)C(O)C2OC)O[C@H]1n1cnc2c(N)ncnc21` (stereo partly drawn) [I′-6, m^7G(^3′-OMe)pppA(2′-OMe)pm^1Ψ], which “24-hour EPO values compared with 6-hour values” (after IV injection) is on record?
Answer: higher than the 6-hour values

Question: And the “translation (plasma EPO) relative to CC413” value (later time points)?
Answer: 2- to 3 fold

Question: And the “translation (EPO level) relative to I′-1” value (m1Ψ-modified mRNA capped with I′-6 vs U-containing mRNA capped with I′-1, each time point)?
Answer: 2-3 fold

Question: What about the “translation relative to unmodified I′-1” value (m1Ψ-modified mRNA, 6-24 hours after administration) of the same compound?
Answer: 2-3 fold

Question: What about the “translation relative to unmodified I′-1” value (m1Ψ-modified mRNA, 48-72 hours after administration) of the same compound?
Answer: 4-5 fold

Question: And the “translation / plasma EPO level relative to CC413” value (m1Ψ-modified mRNA, 48 and 72 h after injection, respectively)?
Answer: 1.5-3 fold

Question: And the “performance compared with cap analogs with other modification” value (m1Ψ-modified mRNA, same capping efficiency)?
Answer: surpasses the performance of other cap analogs

Question: What about the “translation of ARCA analogs compared to non-ARCA caps CC114 and I′-13” value (regardless of the RNA modification) of the same compound?
Answer: significantly better

Question: And the “plasma EPO compared with reference samples (I′-1, CC114, CC413)” value (regardless of the cap initiators)?
Answer: outperformed each reference sample

Source: patent publication US20260109727A1, “RNA CONSTRUCTS AND USES THEREOF” (BioNTech SE, priority 2022, published 2026)
